PMC8805583, “Discovery of Herbacetin as a Novel SGK1 Inhibitor to Alleviate Myocardial Hypertrophy” (Advanced Science, 2021)

Tests used:
[1] = target: T1, SGK1 (Homo sapiens, UniProt O00141); assay: Mass spectrometry-based SGK1 kinase inhibitory assay (LC/MS of phosphorylated […]); format: biochemical; conditions: MS-based kinase inhibitory assay
T1 sequence (O00141 1-431): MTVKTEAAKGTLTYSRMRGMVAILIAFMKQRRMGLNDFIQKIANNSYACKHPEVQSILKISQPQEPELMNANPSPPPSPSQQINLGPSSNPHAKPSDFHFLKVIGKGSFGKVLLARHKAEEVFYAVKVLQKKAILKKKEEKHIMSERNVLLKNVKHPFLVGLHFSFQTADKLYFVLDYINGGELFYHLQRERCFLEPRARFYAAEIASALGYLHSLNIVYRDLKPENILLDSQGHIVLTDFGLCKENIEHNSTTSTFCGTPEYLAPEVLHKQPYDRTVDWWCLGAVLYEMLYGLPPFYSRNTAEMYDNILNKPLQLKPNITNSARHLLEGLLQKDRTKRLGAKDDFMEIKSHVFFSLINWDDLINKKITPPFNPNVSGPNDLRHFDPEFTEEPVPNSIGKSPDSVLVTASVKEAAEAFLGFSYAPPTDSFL
Source text: (§1) To identify active compounds with SGK1 inhibitory activity from Ext.R, a novel mass‐spectrometry based kinase inhibitory assay was developed. A polypeptide sequence ([…], m/z: 618.6) derived from glycogen Synthase Kinase‐3(GSK3), a known substrate of SGK1, was optimized and synthesized. We subsequently used liquid chromatography coupled with mass spectrometry (LC/MS) to detect and quantify its phosphorylation level ([…](p)FAE, m/z:658.7) (Figure 3A).^[ [26] ^] Basal level SGK1 was supplemented to each well, and the peak area of phosphorylation was measured in the presence or absence of testing compounds. […] After investigating the major chemical constituents in Ext.R (Table S3, Supporting Information), a set of compounds in Ext.R were subsequently screened for their impacts on SGK1 activity. […] The direct interaction between HBT and SGK1 was further verified by temperature‐ and dose‐dependent cellular thermal shift assays (Figure 3E,F). We further performed a direct binding assay of HBT to SGK1 by KINOMEscan assay (Eurofins Discovery).
Synthesis of […] was prepared by Shanghai Sangong Biotech. In order to ensure the phosphorylation reaction of SGK1, SGK1 (0.25 µg mL^−1) was added to kinase buffer (25 mmol Tris [pH 7.5], 5 mmol β‐glycerolphosphate, 2 mmol DTT, 10 mmol MgCl2) with the substrate peptide […] (25 µmol) and ATP (200 µmol) and incubated for 1 h at 30 °C in the presence or absence of inhibitors. A concentration‐dependent assay for SGK1 at different concentrations (0.05, 0.1, 0.2, 0.25, and 0.3 µg mL^−1) was performed. Reactions were terminated by the addition of methyl alcohol with 0.1% trifluoroacetic acid (TFA), and supernatants were analyzed by the Agilent 1100 LC system (Agilent Technologies, USA) and a 1946D single quadrupole mass spectrometer. The acquisition parameters for LC/MS were set for positive ionization mode and selected ion monitoring (SIM) m/z values of 618.6 and 658.7 for the substrate peptide and product peptide respectively. Chromatographic separation was performed by a reversed‐phase ZORBAX SB‐C18 analytical column. The mobile phase included water containing 0.1% v/v TFA (A) and acetonitrile containing 0.1% v/v TFA (B). The flow rate was 0.6 mL min^−1. A gradient program was carried out according to the following profile: 0 min, 13% B; 15 min, 28% B; 16 min, 100% B. The constituents of Ext.R were screened by the assay to evaluate their inhibitory effects on SGK1 activity. A minimum of three replicates of each sample were analyzed and averaged together. Inhibition of SGK1 was calculated by the following equation (1) Inhibitionrate%=PC−PS/PC P C and P S represented the peak area of product peptide in the control group without test compounds and the tested sample group with various test compounds, respectively.

[2] = target: T1, SGK1; assay: Cellular thermal shift assay in cell lysates; format: binding
Source text: as §1
Figure 3 Mass spectrometry‐based kinase inhibitory assay for screening SGK1 inhibitor. A) Illustration of the mass spectrometry‐based assay for screening SGK1 inhibitors. […] G) Direct binding assay of HBT to SGK1 by KINOMEscan assay (Eurofins Discovery).

SMILES: O=c1c(O)c(-c2ccc(O)cc2)oc2c(O)c(O)cc(O)c12 [HBT, herbacetin]
- IC50 [1]: 752 nM
- thermal stability of SGK1, concentration-dependent cellular thermal shift assay ([2]; 65 °C): increases the thermal stability of SGK1
- thermal stability of SGK1, temperature-dependent cellular thermal shift assay ([2]; HBT 100 µmol): increases the thermal stability of SGK1
